Experimental data as given in patent US6586630B1, “Ethylamine derivatives” (Chugai Seiyaku Kabushiki Kaisha, priority 1998, dated 2003).

What was measured:
[1] = target: T1, Motilin receptor (Oryctolagus cuniculus, UniProt G1T803); assay: Motilin receptor binding test (125I motilin, rabbit duodenum protein sample); details: 125I motilin 25 pM, concentration reducing specific binding by 50%
T1 construct: had the mucous membrane separated and homogenized in 50 mM Tris buffer to prepare a protein sample; from tissue; host or cells: rabbit duodenum with the mucous membrane separated, homogenate
T1 sequence (G1T803 1-400): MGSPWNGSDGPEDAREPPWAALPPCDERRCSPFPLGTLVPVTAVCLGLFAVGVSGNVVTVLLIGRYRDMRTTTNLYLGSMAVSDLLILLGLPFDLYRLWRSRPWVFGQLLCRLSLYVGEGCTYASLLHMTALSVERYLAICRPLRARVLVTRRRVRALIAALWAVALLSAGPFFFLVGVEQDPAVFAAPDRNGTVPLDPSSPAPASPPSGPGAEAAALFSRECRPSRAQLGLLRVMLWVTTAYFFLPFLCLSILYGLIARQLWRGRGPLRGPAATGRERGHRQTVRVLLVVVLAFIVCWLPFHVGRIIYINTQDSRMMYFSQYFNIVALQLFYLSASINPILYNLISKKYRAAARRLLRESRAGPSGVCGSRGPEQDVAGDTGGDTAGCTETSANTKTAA
Protocol: Motilin Receptor Binding Test
A motilin receptor binding test was conducted in the following manner [Vantrappen et al., Regul. Peptides, 15, 143 (1986)]. The duodenum was extracted from a slaughtered rabbit, had the mucous membrane separated and homogenized in 50 mM Tris buffer to prepare a protein sample. The protein sample was incubated together with ^125I motilin 25 pM and thereafter the radioactivity bound to the protein was measured. Specific binding was defined as the difference between the radioactivity in the case of no adding and that in the case of adding a great excess amount of motilin (10^−7 M). The activity of the compound was expressed by IC50 (in nM), as the concentration sufficient to reduce the specific binding by 50%.

[2] = tested on: motilin-induced contraction of longitudinal muscle in the duodenum; assay: Contraction suppressing test: motilin-induced contraction of a specimen of longitudinal muscle in the duodenum extracted from a rabbit; format: cell-based; details: rabbit duodenum longitudinal muscle in organ bath, Krebs solution 28° C.; effect on dose-dependent contraction by motilin
Protocol: Action on the Contraction of a Specimen of Longitudinal Muscle in the Duodenum Extracted from a Rabbit
The action on the motilin-induced contraction of a specimen of longitudinal muscle in the duodenum extracted from a rabbit was investigated by the following method. A duodenum specimen extracted from a slaughtered rabbit (5×15 mm) was suspended in an organ bath (10 ml) such that the longitudinal muscle would run vertically; the bath was filled with a Krebs solution kept at 28° C. A mixed gas (95% O2 and 5% CO2) was continuously bubbled into the Krebs solution and the contraction of the duodenum specimen was recorded isotonically (with a 1-g load) via an isotonic transducer (ME-3407, ME Commercial, Tokyo, Japan). The degree of contraction was expressed in relative values, with the contraction by acetylcholine at a dose of 10^−4 M being taken as 100%. The activity of the compound was calculated as pA2 value indicating its effect on the dose-dependent muscle contraction by the motilin put into the organ bath.

IC50 [1]: 3.5 nM
Compound: CC(C)[C@@H](C(=O)NC(Cc1ccc(F)c(C(C)(C)C)c1)C(N)=O)N(C)C(=O)[C@@H](N)Cc1ccccc1 (single isomer, unassigned) [7 (A), Phe-N-Me-Val-Phe(3-tBu-4-F)—NH2]
Contraction suppressing test, pA2 [2]: 7.58
